From the Kinase Knowledgebase extract (Sharma et al. 2016) come the findings set out here.

For test [1], the target named is PIK3CD (Human) (UniProt O00329). Kind of test: Assessment of Human B Lymphocyte Function. To be noted: b cells.
Another test concerns the target PIK3CA (human) (UniProt P42336). Briefly: Inhibition of PIK3CA Kinase Activity.
A further test concerns the target PIK3CB (Human) (UniProt P42338). Kind of test: Inhibition of PIK3CB Kinase Activity.
The target of test [2] is PIK3CD (Human) (UniProt O00329). Briefly: Assessment of Elastase Exocytosis From Neutrophils.
For another test, the target named is PIK3CG (human) (UniProt P48736). Briefly: Inhibition of PIK3CG Kinase Activity.
PIK3CG (human), sequence (P48736 whole entry, looked up): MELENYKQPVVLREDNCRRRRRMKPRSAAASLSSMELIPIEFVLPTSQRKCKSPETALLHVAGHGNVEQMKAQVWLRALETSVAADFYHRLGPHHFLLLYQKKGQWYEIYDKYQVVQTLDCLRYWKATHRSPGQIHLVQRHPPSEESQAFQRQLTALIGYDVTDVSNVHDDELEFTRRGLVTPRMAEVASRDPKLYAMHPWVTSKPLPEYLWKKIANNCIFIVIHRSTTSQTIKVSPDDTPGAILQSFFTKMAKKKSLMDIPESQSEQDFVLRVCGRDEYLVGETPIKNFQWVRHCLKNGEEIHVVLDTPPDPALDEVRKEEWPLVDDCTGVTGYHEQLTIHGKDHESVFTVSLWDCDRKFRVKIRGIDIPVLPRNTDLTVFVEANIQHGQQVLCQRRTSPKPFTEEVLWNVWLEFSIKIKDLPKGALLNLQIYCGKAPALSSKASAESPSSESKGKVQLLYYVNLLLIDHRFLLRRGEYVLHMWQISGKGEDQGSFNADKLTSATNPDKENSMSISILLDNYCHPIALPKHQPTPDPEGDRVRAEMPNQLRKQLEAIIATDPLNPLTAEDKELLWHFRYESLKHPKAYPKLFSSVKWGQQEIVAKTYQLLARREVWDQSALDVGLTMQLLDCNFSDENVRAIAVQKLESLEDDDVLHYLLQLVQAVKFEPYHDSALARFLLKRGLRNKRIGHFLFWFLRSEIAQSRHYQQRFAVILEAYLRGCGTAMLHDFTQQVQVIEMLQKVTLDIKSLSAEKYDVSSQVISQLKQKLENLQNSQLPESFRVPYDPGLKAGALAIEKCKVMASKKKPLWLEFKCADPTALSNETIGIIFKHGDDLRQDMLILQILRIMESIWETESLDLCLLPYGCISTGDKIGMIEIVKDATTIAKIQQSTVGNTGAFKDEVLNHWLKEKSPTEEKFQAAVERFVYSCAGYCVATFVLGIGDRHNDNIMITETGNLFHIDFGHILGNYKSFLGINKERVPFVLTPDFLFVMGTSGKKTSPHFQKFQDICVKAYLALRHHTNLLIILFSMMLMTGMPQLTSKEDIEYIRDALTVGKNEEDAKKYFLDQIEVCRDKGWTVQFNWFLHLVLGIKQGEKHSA

What is called EC50 is the concentration at which the effect is half-maximal. Read a low EC50 as an effect from little substance. The term IC50 denotes the midpoint of a concentration-inhibition curve. Lower therefore signals inhibition by little substance.

PIK3CA (human), sequence (P42336 whole entry, looked up): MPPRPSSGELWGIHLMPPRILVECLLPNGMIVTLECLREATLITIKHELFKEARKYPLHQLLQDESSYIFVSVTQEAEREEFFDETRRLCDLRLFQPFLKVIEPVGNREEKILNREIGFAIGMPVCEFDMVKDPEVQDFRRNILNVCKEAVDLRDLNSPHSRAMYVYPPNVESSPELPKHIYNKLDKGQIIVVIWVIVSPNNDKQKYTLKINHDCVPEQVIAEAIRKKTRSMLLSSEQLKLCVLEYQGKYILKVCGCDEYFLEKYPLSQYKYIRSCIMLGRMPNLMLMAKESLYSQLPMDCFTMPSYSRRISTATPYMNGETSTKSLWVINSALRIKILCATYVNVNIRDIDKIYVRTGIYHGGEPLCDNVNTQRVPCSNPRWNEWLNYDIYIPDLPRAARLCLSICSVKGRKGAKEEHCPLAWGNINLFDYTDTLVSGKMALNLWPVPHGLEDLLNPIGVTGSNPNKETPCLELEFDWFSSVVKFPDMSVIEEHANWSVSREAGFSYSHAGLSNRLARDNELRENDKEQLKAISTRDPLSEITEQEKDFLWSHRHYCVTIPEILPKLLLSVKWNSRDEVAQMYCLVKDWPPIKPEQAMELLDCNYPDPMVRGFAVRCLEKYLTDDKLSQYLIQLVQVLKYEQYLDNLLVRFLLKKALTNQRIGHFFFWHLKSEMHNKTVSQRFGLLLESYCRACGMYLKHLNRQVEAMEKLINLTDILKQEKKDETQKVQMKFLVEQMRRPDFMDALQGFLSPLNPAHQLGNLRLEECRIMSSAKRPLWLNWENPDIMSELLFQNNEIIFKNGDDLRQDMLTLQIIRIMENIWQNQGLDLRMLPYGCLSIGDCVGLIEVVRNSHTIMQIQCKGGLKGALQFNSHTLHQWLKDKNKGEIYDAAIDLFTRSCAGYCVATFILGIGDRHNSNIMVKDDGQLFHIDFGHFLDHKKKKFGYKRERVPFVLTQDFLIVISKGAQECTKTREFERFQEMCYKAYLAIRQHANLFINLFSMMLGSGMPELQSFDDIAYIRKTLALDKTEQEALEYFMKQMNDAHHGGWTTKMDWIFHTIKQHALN
PIK3CD (Human), sequence (O00329 whole entry, looked up): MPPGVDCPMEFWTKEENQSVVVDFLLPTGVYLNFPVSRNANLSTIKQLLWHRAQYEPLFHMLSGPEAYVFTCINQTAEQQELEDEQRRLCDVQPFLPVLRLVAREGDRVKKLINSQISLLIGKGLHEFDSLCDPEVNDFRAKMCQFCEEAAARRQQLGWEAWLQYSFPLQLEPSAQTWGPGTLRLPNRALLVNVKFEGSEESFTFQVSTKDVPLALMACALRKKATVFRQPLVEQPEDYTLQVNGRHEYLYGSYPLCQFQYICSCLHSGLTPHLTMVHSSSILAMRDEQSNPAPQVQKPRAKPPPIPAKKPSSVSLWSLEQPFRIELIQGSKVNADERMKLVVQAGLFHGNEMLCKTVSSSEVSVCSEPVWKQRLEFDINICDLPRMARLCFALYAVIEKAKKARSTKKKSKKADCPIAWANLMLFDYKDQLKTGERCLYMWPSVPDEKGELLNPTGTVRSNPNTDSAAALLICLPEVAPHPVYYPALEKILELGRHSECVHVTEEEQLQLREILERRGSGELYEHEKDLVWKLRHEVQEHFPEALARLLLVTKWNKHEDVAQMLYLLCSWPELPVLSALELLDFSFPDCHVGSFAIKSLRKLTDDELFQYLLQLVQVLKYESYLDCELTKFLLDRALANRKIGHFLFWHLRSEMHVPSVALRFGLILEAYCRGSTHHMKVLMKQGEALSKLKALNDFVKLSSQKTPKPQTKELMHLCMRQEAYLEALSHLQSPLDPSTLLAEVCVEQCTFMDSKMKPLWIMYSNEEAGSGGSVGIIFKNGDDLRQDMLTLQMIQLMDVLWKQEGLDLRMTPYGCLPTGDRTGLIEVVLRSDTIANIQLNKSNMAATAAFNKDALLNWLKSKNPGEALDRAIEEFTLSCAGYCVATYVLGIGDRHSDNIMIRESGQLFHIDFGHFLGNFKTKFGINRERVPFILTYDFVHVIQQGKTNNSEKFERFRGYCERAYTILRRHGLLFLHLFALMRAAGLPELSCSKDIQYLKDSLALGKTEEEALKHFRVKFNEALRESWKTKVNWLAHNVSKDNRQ
PIK3CB (Human), sequence (P42338 whole entry, looked up): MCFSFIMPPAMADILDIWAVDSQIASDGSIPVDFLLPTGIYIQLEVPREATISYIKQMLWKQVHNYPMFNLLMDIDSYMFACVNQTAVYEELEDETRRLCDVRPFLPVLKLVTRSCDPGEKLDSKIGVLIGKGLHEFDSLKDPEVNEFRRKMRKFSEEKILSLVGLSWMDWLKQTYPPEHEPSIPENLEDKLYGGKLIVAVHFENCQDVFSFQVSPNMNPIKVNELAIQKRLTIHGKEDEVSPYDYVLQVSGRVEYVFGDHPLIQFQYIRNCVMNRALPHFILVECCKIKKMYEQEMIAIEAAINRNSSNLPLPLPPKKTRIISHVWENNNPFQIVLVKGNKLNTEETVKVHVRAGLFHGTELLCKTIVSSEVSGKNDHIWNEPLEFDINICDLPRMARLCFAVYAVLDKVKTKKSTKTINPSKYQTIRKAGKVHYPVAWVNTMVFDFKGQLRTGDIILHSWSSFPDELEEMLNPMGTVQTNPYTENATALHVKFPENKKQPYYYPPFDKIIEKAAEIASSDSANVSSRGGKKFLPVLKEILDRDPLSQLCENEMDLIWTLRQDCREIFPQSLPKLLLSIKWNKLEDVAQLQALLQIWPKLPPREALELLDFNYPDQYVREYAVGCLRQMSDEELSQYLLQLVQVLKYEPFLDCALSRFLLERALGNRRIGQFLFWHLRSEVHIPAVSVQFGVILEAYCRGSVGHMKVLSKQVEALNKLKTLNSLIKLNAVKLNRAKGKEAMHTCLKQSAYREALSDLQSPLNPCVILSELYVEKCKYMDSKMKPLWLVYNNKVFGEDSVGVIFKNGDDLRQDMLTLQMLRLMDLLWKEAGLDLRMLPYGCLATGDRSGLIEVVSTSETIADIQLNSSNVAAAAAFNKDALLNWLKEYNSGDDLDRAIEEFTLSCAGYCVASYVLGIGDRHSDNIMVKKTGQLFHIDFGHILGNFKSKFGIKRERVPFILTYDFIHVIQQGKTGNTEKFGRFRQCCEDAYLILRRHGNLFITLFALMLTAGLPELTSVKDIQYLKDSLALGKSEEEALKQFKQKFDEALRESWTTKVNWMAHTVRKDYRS

Regarding `CC[C@H](Nc1ncnc2[nH]cnc12)c1nc2cccc(Cl)c2c(=O)n1-c1cc(F)cc(F)c1`, the EC50 came to 0.0016 µM at PIK3CD (Human) [1] and 0.382 µM at PIK3CD (Human) [2]. Further, the IC50 amounted to 7.94 µM at PIK3CA (human), 0.936 µM against PIK3CB (Human) and 0.804 µM on PIK3CG (human).

Regarding `CCC(Nc1ncnc2[nH]cnc12)c1nc2ccccc2c(=O)n1-c1ccccc1` (centres undefined), the EC50 at PIK3CD (Human) [1] worked out at 0.0046 µM; at PIK3CD (Human) [2], 0.084 µM. Moreover, the IC50 against PIK3CA (human) was 9.73 µM; against PIK3CB (Human) it was 1.18 µM; against PIK3CG (human), 1.06 µM.

On to `CCC(Nc1ncnc2[nH]cnc12)c1nc2cccc(C)c2c(=O)n1-c1cc(F)cc(F)c1` (centres undefined), for which the IC50 amounted to 18.7 µM against PIK3CA (human), 2.44 µM against PIK3CB (Human) and 1.61 µM at PIK3CG (human). This molecule displayed an EC50 on PIK3CD (Human) [2] of 0.584 µM.

In the case of `CCC(Nc1ncnc2[nH]cnc12)c1nc2cccc(Cl)c2c(=O)n1-c1c(F)cccc1F` (centres undefined), the figures for the EC50 at PIK3CD (Human) [1] and on PIK3CD (Human) [2] were 0.0307 µM and 0.298 µM, respectively. Besides, the IC50 against PIK3CA (human) came out at 11.2 µM; at PIK3CB (Human) it was 3.24 µM; on PIK3CG (human), 1.71 µM.
